Measured values reported in US9132280B2, “Use of fusarochromanone and its derivatives in the diagnosis and treatment of cancer and other diseases” (University of South Carolina, priority 2008, dated 2015).
Entries after “also recorded” stand apart in the source; their conditions may differ.

What was measured:
B16 melanoma cells [1] = assay: Confocal time-lapse fluorescence imaging of drug uptake (IOD) in B16 melanoma cells; format: cell-based, mouse; details: 400 nM
Procedure: (§1) Cells growing in the Matra-Tek dishes were maintained in an environmental chamber (37° C. and 5% CO2 atmosphere) mounted on the stage of a Zeiss inverted fluorescence microscope equipped with a CARV spinning disk confocal attachment. B16 cells were imaged using a Zeiss 63× oil NA=1.4 apochromatic objective, which gave an image field of 7265.15 μm^2. Cardiac Fibroblasts were imaged using a Zeiss 40× oil 1.0 NA apochromatic objective, which gave an image field of 18,006.85 μm^2. The images were captured using a CCD camera (Hamamatsu ORCA-ER) controlled by Kinetic Imaging Image Acquisition Software (AQM Advance-6) software. All images were recorded at a constant exposure (385 ms) using a DAPI (360/460) filter set, which isolates the natural fluorescence of the compound.
(§2) The cells were maintained in 1 ml of tissue culture medium and allowed equilibrate in the environmental chamber, before imaging of the selected group of cells was initiated. […] The rate of entry of the drug into the cells was determined by high-speed image collection (1 sec interval, 60 exposures per min). The equilibrium-concentration uptake of the drug was determined by slow-speed time-lapse imaging (10 sec intervals, 6 exposures per min) collected for a minimum of 30 minutes. In all experiments, images were recorded prior to addition of the drug to provide a negative control of any auto-fluorescence present in the cells. […]

B16 melanoma cells [2] = assay: Phototoxic effect under blue light exposure during time-lapse imaging, transformed cells; format: cell-based, mouse; details: transformed cells loaded with FC101
Procedure: as §1, §2

[3] = Experimental physicochemical properties of FC101 (pKa, structural counts; Table 1)
[4] = system: normal cardiac fibroblasts; assay: Phototoxic effect under blue light exposure during time-lapse imaging, normal cells; format: cell-based, rat
Procedure: as §1, §2

[5] = Experimental Log P, shaken-flask method (n-octanol/water adjusted to pH 10); format: physicochemical
Procedure: The shaken-flask method was also used to determine the experimental non-ionized partition coefficient for FC101. The same procedure used in the experimental determination of Log D for FC101 was used to determine the Log P with the exception that double-distilled water adjusted to pH 10 with 1 mM NaOH was used instead of the phosphate buffer. The log P was calculated using: Log10 P=Log10([FC101uncharged]oct/[FC101uncharged]wat) Imaging of Drug Uptake: […]

[6] = Experimental Log D, shaken-flask method (n-octanol/phosphate buffer); format: physicochemical; details: pH 7.6
Procedure: The shaken-flask method with n-octanol/phosphate buffer was used to determine the experimental ionized partition coefficient for FC101^10. Briefly, 50 ml each of n-octanol and 0.1 M phosphate buffer (at appropriate pH) were added to a 125 ml flask and placed on a mechanical shaker at room temperature for 24 hours to ensure saturation of each phase. The phases were then separated by centrifugation (Damon IEC HN-SII) at 2000 rpm for 30 min. After separation, aliquots (1 ml) were taken from each phase and were placed in separate vials. A small sample (45.5 μl) of a stock solution of 10 mM FC101 in water was added to the aqueous phase. […] The n-octanol was separated from the phosphate buffer and the absorbance at 385 nm (Shimadzu UV 1601) was then used to determine the concentration of FC101 in each phase. The partition coefficient was calculated using the following equation: Log10 D=([FC101charged+uncharged]oct[FC101charged+uncharged]buf) Experimental Log P for FC101
The shaken-flask method with n-octanol/phosphate buffer was used to determine the experimental ionized partition coefficient for FC101^10. […] The n-octanol was separated from the phosphate buffer and the absorbance at 385 nm (Shimadzu UV 1601) was then used to determine the concentration of FC101 in each phase. […]

B-16 melanoma cells = assay: Cell growth inhibition, MTT assay; format: cell-based, mouse; details: B-16 melanoma cells compared to normal cardiac fibroblasts
Procedure: Cells were plated in a 96 well format containing 100 μl per well of appropriate media at a density of 2.5×10^4 cells/ml, and incubated at 37° C. with 5% CO2. After a 24 h attachment period, the cells were treated in sextuplicate with 100 μl per well of varying concentrations (0 to 10 μM) of FC101. Final volume in each well was 200 μl. Cell proliferation was then determined by the MTT assay after 48 hr incubation period^8. Briefly, 20 μl of a 5 mg/ml solution of MTT (dissolved in HBS) was added to each well. After 4.5 hr incubation at 37° C., the media were then removed and the insoluble mitochondrial-converted dye was solubilized in 100 μl of DMSO. The plates were placed on a shaker for 30 min to ensure that all of the dye was in solution and then read on a (Spectra Max plus 384, Molecular Devices) microplate reader at […]. The background absorbency at 640 nM was subtracted from the 570 nM value before calculating the GI50.

[7] = system: normal cardiac fibroblasts; assay: Confocal time-lapse fluorescence imaging of drug uptake (IOD) in normal cardiac fibroblasts; format: cell-based, rat; details: 400 nM
Procedure: as §1, §2
FC101 is a naturally fluorescent molecule and its movements, accumulation and distribution within living cells can be followed and analyzed in real-time or by time-lapse imaging. Cellular uptake of the drug was analyzed using the integrated morphometry subroutine of MetaMorph 6.1 (MDS Analytical Technologies). […] The drug fluorescence in the cytoplasm of the cells was thresholded as a region of interest and the integrated optical density (IOD) of the drug fluorescence was measured for all cells in the field at each time point. Values of image brightness, contrast and gamma function were kept constant for all image measurements of drug fluorescence. […]

Structure (SMILES): CC1(C)CC(=O)c2c(ccc(C(=O)CC(N)CO)c2N)O1 (racemic) [FC101, 5-amino-2,2-dimethyl-6-[3′-(R,S)amino-4′-hydroxy-butan-1-one]-2,3-dihydro-4H-1-benzopyran-4-one]
- Uptake of FC101 (intracellular fluorescence) (B16 melanoma cells [1]; 10 sec after addition): immediately entered the cells
- Uptake of FC101 (intracellular fluorescence) (B16 melanoma cells [1]; 20 min after addition): stable with no decrease in intracellular drug fluorescence
- Cell death (phototoxic effect) on blue light exposure (B16 melanoma cells [2]): undergo cell death
- Hydrogen Bond Acceptors [3]: 6
- Hydrogen Bond Donors [3]: 5
- pKa ([3]; amino group on C-3 of the side chain): 8.6
- Cell death (phototoxic effect) on blue light exposure [4]: do not exhibit this effect; also recorded: ineffectiveness
- Log10 P [5]: 1.62
- Log10 D7.6 [6]: 0.38
- Inhibition of cell growth, tumorigenic versus normal cells (B-16 melanoma cells): preferential inhibition of tumorigenic B-16 melanoma cells
- Uptake of FC101 (intracellular fluorescence) ([7]; 10 sec after addition (less than a minute)): No incorporation; also recorded: no uptake of FC101
- Uptake of FC101 (intracellular fluorescence) ([7]; 4 min after addition): minimal increase in cytoplasmic fluorescence
- Uptake of FC101 (intracellular fluorescence) ([7]; 20 min after addition): significant increase in intracellular fluorescence
